Assay results taken from patent US20020006915A1, “Use of COX-2 inhibitors to treat sepsis, complications thereof, and EP receptor modulation” (priority 2000, published 2002).
“Also recorded” adds a separate entry of the source. Marks after values point to notes of the source that are not given here.

What was measured:
plasma PGE2 [1] = test: Plasma PGE2 of mice at 6 h after traumatic injury; type: in vivo, BALB/c mice; conditions: for PGE2 levels at 6 h: pooled serum n=6
Method: Vehicle mice were injected with a 4% DMSO solution. To evaluate the efficacy of NS-398 on plasma PGE2 levels, mouse blood was collected at 6 hours after injury±treatment. […] At 6 hours after trauma, plasma PGE2 levels were increased from […] to 49,733 […]).

COX-2 mRNA = COX-2 mRNA expression in LPS stimulated splenic macrophages by RT-PCR (3 doses within 24 h); type: in vivo, BALB/c mice; conditions: traumatized mice + NS-398, 3 doses within 24 h, day 7
Method: Isolated splenic macrophages were treated with lipopolysaccharide (LPS) (10 ng/ml) for six hours.
To evaluate the relative expression of COX-2 mRNA, splenic macrophages were treated as previously described and harvested by RT-PCR.

[2] = test system: BALB/c mice given a septic challenge by cecal ligation and puncture; test: Survival after septic challenge (cecal ligation and puncture) on day 7 after trauma, 3 doses of NS-398 within 24 h; type: in vivo
Excerpt: A value of p<0.05 was considered significant. […] A value of p<0.05 was considered significant.

[3] = Body weight and splenocyte counts 7 days after trauma (NS-398 twice a day over 7 days); type: in vivo, BALB/c mice; conditions: for Body Wt.: day 7
Method: Animals, Experimental Protocol, NS-398 preparation were as described in Example I. Macrophages were prepared as described initially under “Macrophage Preparation ” in Example I. After lysis of erythrocytes with ammonium chloride solution and centrifugation as described in Example I, macrophages were further prepared by resuspending the pellet in RPMI-1640 (Gibco BRL, Life Technologies Inc) containing 2 mmol/L L-glutamine, 100 U/mL penicillin, 100 μg/mL streptomycin, 0.25 μg/mL amphotericin B, and 10% heat-inactivated fetal calf serum (Gibco BRL, Life Technologies Inc), counted via hemocytometer and diluted to a final concentration of 5×10^6 cells/mL, and plated in 96 well plates in a volume of 0.2 mL per well. After allowing macrophages to adhere for 2 hours, the remaining cells were suctioned off and the macrophages were cultured in the +/−1 ng LPS 055:B5 (Sigma, St. Louis, Mo.) per mL at 37° C. in 5% carbon dioxide incubators. Supernatants were harvested at 24 hours and stored at −70° C. until analysis for batch enzyme-linked immunosorbent assay processing to determine prostaglandin and cytokine production.
Body weight and splenocyte recovery after injury±NS-398 were recorded.
(§1) BALB/C mice (n=8/group) were given 10mg/kg NS398 intraperitoneally BID for 7 days, starting immediately after sham injury or trauma (femur fracture+40% hemorrhage). Four groups, sham+placebo (C); sham+NS398 (CN); trauma+placebo (T); or trauma+NS398 (TN) were studied. On day 7 after trauma, mice were sacrificed and splenic macrophages evaluated for PGE2, TNF-α and NO production (via Student's t-test). In a separate study, mice (n=10-11/group) were traumatized and given NS398 for 7 days. On day 7, cecal ligation and puncture was performed, and mice evaluated for survival over 3 weeks (via Log-rank test).

plasma PGE2 [4] = test: Plasma PGE2 levels at 1 and 7 days after trauma; type: in vivo, BALB/c mice
Method: Plasma PGE2 levels were determined in separate experiments by sacrificing mice at 1 day and at 7 days after treatment with NS-398. There was an increase in PGE2 levels at 1 and 7 days after traumatic injury compared with uninjured controls.

[5] = test system: BALB/c mice subjected to cecal ligation and puncture; test: Survival after cecal ligation and puncture 7 days after trauma, NS-398 twice a day over 7 days; type: in vivo
Excerpt: All cytokine results are reported as mean±SEM of 8 mice per group. The ANOVA was used to determine the significance of the differences between means of traumatized±treatment versus control±treatment groups. A P value of <0.05 was considered significant. For survival studies, Kaplan-Meier (Log-rank) statistical analysis was used to compare all four groups studied. A P value of <0.05 was considered significant.
To evaluate the biological relevance of NS-398, mice were randomized into the four treatment groups. After 7 days, all mice were subjected to cecal ligation and puncture (CLP) and followed for survival over 10 days, when remaining mice were euthanized. […] Only 9% of control mice survived after 200 hours compared to a significant increase in survival of trauma+NS-398 treated mice in which 45% survived.
as §1

EP2 receptor = EP2 receptor expression in LPS stimulated human PBMC's via RT-PCR; type: cell-based; conditions: PBMC's after injury, co-incubation with NS-398
Method: (§2) Serial dilutions were made to co-culture cells with a final concentration of […] NS-398 in a 0.1% DMSO. Control and trauma groups were co-cultured with 0.1% DMSO vehicle for comparisons with NS-398 treated groups.

EP4 receptor = EP4 receptor expression in LPS stimulated human PBMC's via RT-PCR; type: cell-based; conditions: PBMC's after injury, co-incubation with NS-398
Method: as §2

CS(=O)(=O)Nc1ccc([N+](=O)[O-])cc1OC1CCCCC1 [NS-398, N-(2-cyclohexyloxy-4-nitrophenyl)methanesulfonamide]
PGE2 levels at 6 h (plasma PGE2 [1]; Control + NS-398, plasma): 35,961 pg/ml
PGE2 levels at 6 h (plasma PGE2 [1]; Trauma + NS-398, plasma): 29,902 pg/ml
plasma PGE2 levels (plasma PGE2 [1]; injured mice treated with NS-398 (TN), 6 hours after trauma): 29900 pg/mL
COX-2 mRNA levels relative to GAPDH (COX-2 mRNA): attenuated the levels of COX-2 mRNA to below control levels
COX-2 mRNA levels relative to GAPDH (COX-2 mRNA; listed as NS398): significant decreases
survival ([2]; T + NS, 3 i.p. injections of 10 mg/kg, CLP on day 7, n=10-12): 92%#
survival ([2]; control mice treated with NS-398): 66%
survival ([2]; traumatized mice treated with NS-398): 92%
Body Wt. ([3]; Control + NS-398, twice a day over 7 days): 18.3 ± 0.3 g
Body Wt. ([3]; Trauma + NS-398, twice a day over 7 days): 16.7 ± 0.7 g
difference in body weight ([3]; control versus trauma+NS-398 mice, 7 days after trauma): no significant difference
Plasma PGE2 Day 1 (plasma PGE2 [4]; Control + NS-398): 24,652 pg/ml
Plasma PGE2 Day 7 (plasma PGE2 [4]; Control + NS-398): 7,244 pg/ml
Plasma PGE2 Day 1 (plasma PGE2 [4]; Trauma + NS-398): 26,370 pg/ml
Plasma PGE2 Day 7 (plasma PGE2 [4]; Trauma + NS-398): 4,354 pg/ml
Plasma PGE2 levels (in words) (plasma PGE2 [4]; control and injured mice, 1 and 7 days): attenuated in both control and injured mice
survival ([5]; C + NS398, 10 mg/kg i.p. BID for 7 days, CLP on day 7): 0%
survival ([5]; T + NS398, 10 mg/kg i.p. BID for 7 days, CLP on day 7): 45%*
survival (in words) ([5]; control+NS-398 mice after CLP): died shortly after CLP
survival ([5]; trauma+NS-398 treated mice, after 200 hours after CLP): 45%
EP2 receptor expression (EP2 receptor): returns to control levels; also recorded: restored
EP4 receptor expression (EP4 receptor): reversed; also recorded: restored
